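Protocol summary: plate cells (96-well), add compound at 5 concentrations, incubate 48 h, interpolate endpoints linearly. GI50 = concentration required for 50% inhibition of growth.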 The source made the active and inactive calls. Rule as the data show it: active = GI50 up to about 1.1 µM and inactive = higher.
Key:
Assay in all cases: NCI tumour cell line growth inhibition, 48 h
MDA-MB-435 = system: MDA-MB-435
TK-10 = system: TK-10
ACHN = system: ACHN
OVCAR-3 = system: OVCAR-3
SF-268 = system: SF-268
NCI-H23 = system: NCI-H23
CCRF-CEM = system: CCRF-CEM
U-251 = system: U-251
NCI-H460 = system: NCI-H460
SK-OV-3 = system: SK-OV-3
SNB-75 = system: SNB-75
BT-549 = system: BT-549
UACC-62 = system: UACC-62
LOX IMVI = system: LOX IMVI
UO-31 = system: UO-31
HCT-15 = system: HCT-15
KM12 = system: KM12
A498 = system: A498
K562 = system: K562
PC-3 = system: PC-3
HOP-62 = system: HOP-62
MDA-MB-231 = system: MDA-MB-231
SF-539 = system: SF-539
NCI-H226 = system: NCI-H226
RPMI-8226 = system: RPMI-8226
UACC-257 = system: UACC-257
SW-620 = system: SW-620
EKVX = system: EKVX
SK-MEL-5 = system: SK-MEL-5
COLO 205 = system: COLO 205
Hs-578T = system: Hs-578T
IGROV-1 = system: IGROV-1
SF-295 = system: SF-295
HCT-116 = system: HCT-116
M14 = system: M14
MCF7 = system: MCF7
NCI/ADR-RES = system: NCI/ADR-RES
HL-60 = system: HL-60
SK-MEL-28 = system: SK-MEL-28
NCI-H522 = system: NCI-H522
HT-29 = system: HT-29
Malme-3M = system: Malme-3M
SNB-19 = system: SNB-19
A549 = system: A549
CAKI-1 = system: CAKI-1
HCC 2998 = system: HCC 2998
OVCAR-5 = system: OVCAR-5
MDA-N = system: MDA-N
RXF 393 = system: RXF 393
786-0 = system: 786-0
DU-145 = system: DU-145
OVCAR-8 = system: OVCAR-8
HOP-92 = system: HOP-92
SR = system: SR
MOLT-4 = system: MOLT-4
SK-MEL-2 = system: SK-MEL-2
SN12C = system: SN12C
OVCAR-4 = system: OVCAR-4
T47D = system: T47D

Cc1ccc(NC(S)=Nc2c(C)n(C)n(-c3ccccc3)c2=O)cc1 was tested, and the GI50 (MDA-MB-435) was > 100 µM (inactive), the GI50 (TK-10) was > 100 µM (inactive) and the GI50 (ACHN) was > 100 µM (inactive). For the same compound, the GI50 (OVCAR-3) was > 100 µM (inactive), the GI50 (SF-268) was > 100 µM (inactive) and the GI50 (NCI-H23) was > 100 µM (inactive). The GI50 (CCRF-CEM) was > 100 µM (inactive), the GI50 (U-251) was > 100 µM (inactive) and the GI50 (NCI-H460) was > 100 µM (inactive). For the same compound, the GI50 (SK-OV-3) was > 100 µM (inactive), the GI50 (SNB-75) was > 100 µM (inactive) and the GI50 (BT-549) was > 100 µM (inactive). For the same compound, the GI50 (UACC-62) was > 100 µM (inactive), the GI50 (LOX IMVI) was > 100 µM (inactive) and the GI50 (UO-31) was > 100 µM (inactive). The GI50 (HCT-15) was > 100 µM, the GI50 (KM12) was > 100 µM (inactive) and the GI50 (A498) was > 100 µM (inactive). For the same compound, the GI50 (K562) was > 100 µM (inactive), the GI50 (PC-3) was > 100 µM (inactive) and the GI50 (HOP-62) was > 100 µM (inactive). The GI50 (MDA-MB-231) was > 100 µM (inactive), the GI50 (SF-539) was > 100 µM (inactive) and the GI50 (NCI-H226) was > 100 µM (inactive). The GI50 (RPMI-8226) was > 100 µM (inactive), the GI50 (UACC-257) was > 100 µM (inactive) and the GI50 (SW-620) was > 100 µM (inactive). The GI50 (EKVX) was > 100 µM (inactive), the GI50 (SK-MEL-5) was > 100 µM (inactive) and the GI50 (COLO 205) was > 100 µM (inactive). For the same compound, the GI50 (Hs-578T) was > 100 µM (inactive), the GI50 (IGROV-1) was > 100 µM (inactive) and the GI50 (SF-295) was > 100 µM (inactive). The GI50 (HCT-116) was > 100 µM (inactive), the GI50 (M14) was > 100 µM (inactive) and the GI50 (MCF7) was > 100 µM (inactive). For the same compound, the GI50 (NCI/ADR-RES) was > 100 µM (inactive), the GI50 (HL-60) was 32.2 µM (inactive) and the GI50 (SK-MEL-28) was > 100 µM (inactive). The GI50 (NCI-H522) was > 100 µM (inactive), the GI50 (HT-29) was > 100 µM (inactive) and the GI50 (Malme-3M) was > 100 µM (inactive). For the same compound, the GI50 (SNB-19) was > 100 µM (inactive), the GI50 (A549) was > 100 µM (inactive) and the GI50 (CAKI-1) was > 100 µM (inactive). For the same compound, the GI50 (HCC 2998) was > 100 µM (inactive), the GI50 (OVCAR-5) was > 100 µM (inactive) and the GI50 (MDA-N) was > 100 µM (inactive). The GI50 (RXF 393) was > 100 µM (inactive), the GI50 (786-0) was > 100 µM (inactive) and the GI50 (DU-145) was > 100 µM (inactive). For the same compound, the GI50 (OVCAR-8) was > 100 µM (inactive), the GI50 (HOP-92) was > 100 µM (inactive) and the GI50 (SR) was > 100 µM (inactive). For the same compound, the GI50 (MOLT-4) was 87.9 µM (inactive).
COc1ccc2c(c1)N=C1CSC(c3ccccc3Cl)N1C2 (centres undefined) was tested, and the GI50 (MDA-MB-435) was 11.5 µM (inactive), the GI50 (TK-10) was 17.1 µM (inactive) and the GI50 (ACHN) was 11.8 µM (inactive). For the same compound, the GI50 (SF-268) was 16.4 µM (inactive), the GI50 (NCI-H23) was 17.9 µM (inactive) and the GI50 (U-251) was 10.8 µM (inactive). The GI50 (NCI-H460) was 3.12 µM (inactive), the GI50 (SK-OV-3) was 15.1 µM (inactive) and the GI50 (SNB-75) was 9.91 µM (inactive). For the same compound, the GI50 (BT-549) was 43.2 µM (inactive), the GI50 (UACC-62) was 4.08 µM (inactive) and the GI50 (LOX IMVI) was 6.55 µM (inactive). For the same compound, the GI50 (UO-31) was 0.351 µM (active), the GI50 (HCT-15) was 9.68 µM and the GI50 (KM12) was 4.6 µM (inactive). The GI50 (K562) was 7.82 µM (inactive), the GI50 (SK-MEL-2) was 15.8 µM (inactive) and the GI50 (PC-3) was 11.5 µM (inactive). For the same compound, the GI50 (HOP-62) was 14.5 µM (inactive), the GI50 (MDA-MB-231) was 27.4 µM (inactive) and the GI50 (SF-539) was 5.48 µM (inactive). For the same compound, the GI50 (NCI-H226) was 24 µM (inactive), the GI50 (RPMI-8226) was 12.2 µM (inactive) and the GI50 (UACC-257) was 16.3 µM (inactive). The GI50 (SW-620) was 14.8 µM (inactive), the GI50 (EKVX) was 7.98 µM (inactive) and the GI50 (SK-MEL-5) was 17.1 µM (inactive). For the same compound, the GI50 (COLO 205) was 14.9 µM (inactive), the GI50 (Hs-578T) was 45.2 µM (inactive) and the GI50 (SF-295) was 13.3 µM (inactive). The GI50 (HCT-116) was 3.92 µM (inactive), the GI50 (M14) was 13 µM (inactive) and the GI50 (MCF7) was 12.2 µM (inactive). The GI50 (NCI/ADR-RES) was 21.6 µM (inactive), the GI50 (HL-60) was 0.411 µM (active) and the GI50 (SK-MEL-28) was 17.6 µM (inactive). For the same compound, the GI50 (NCI-H522) was 15.1 µM (inactive), the GI50 (HT-29) was 4.82 µM (inactive) and the GI50 (Malme-3M) was 23.4 µM (inactive). For the same compound, the GI50 (SNB-19) was 19 µM (inactive), the GI50 (A549) was 10.4 µM (inactive) and the GI50 (CAKI-1) was 3.31 µM (inactive). The GI50 (HCC 2998) was 5.07 µM (inactive), the GI50 (OVCAR-5) was 8.97 µM (inactive) and the GI50 (MDA-N) was 6.17 µM (inactive). For the same compound, the GI50 (SN12C) was 11.1 µM (inactive), the GI50 (OVCAR-4) was 14.1 µM (inactive) and the GI50 (RXF 393) was 11.3 µM (inactive). For the same compound, the GI50 (786-0) was 11.5 µM (inactive), the GI50 (OVCAR-8) was 16.1 µM (inactive) and the GI50 (HOP-92) was 18.3 µM (inactive). For the same compound, the GI50 (SR) was 0.929 µM (active), the GI50 (MOLT-4) was 0.659 µM (active) and the GI50 (T47D) was 19.5 µM (inactive).

Reference: ChEMBL document CHEMBL1201862, “PubChem BioAssay data set” (2004)
